The text below walks through data of patent publication US5831026A, “Process for purifying factor VIII” (Pharmacia & Upjohn AB, priority 1994, dated 1998).

The subject of the assay is factor VIII. Particulars: ambient temperature, vs zero-time value. Here is the method: Conditioned mediums (containing human serum albumin) from four harvests being different from the previous Examples were clarified and buffered with NH4 Ac. Each resulting solution, with a pH of 6.8, was loaded onto a column containing SP SEPHAROSE® FF. This cation-exchange chromatography step was performed at about 8° C. After washing, factor VIII was eluted with a salt buffer containing 0.8M NaCl and 0.1M NH4 Ac. The washing liquid as well as the elution liquid contained 3 mM EDTA. Tests without EDTA present were carried out for comparison. The procoagulant activity of factor VIII was determined by use of a chromogenic substrate method, COATEST® Factor VIII kit (Chromogenix AB of Sweden) after storage at ambient temperature for up to 24 hours. The relative standard deviation (RSD) of the method is 7%.

Where two headings read alike, the source gives them in different places.

For `O=C(O)CN(CCN(CC(=O)O)CC(=O)O)CC(=O)O` [EDTA, ethylenediamine tetraacetic acid], the “Factor VIII activity (%) In preparation with 3 mM EDTA” value reads like this: (harvest solution 1, S-eluate storage 0 h) 100%; (harvest solution 1, S-eluate storage 6 h) 98%; (harvest solution 1, S-eluate storage 24 h) 100%; (harvest solution 2, S-eluate storage 0 h) 100%; (harvest solution 2, S-eluate storage 6 h) 101%; (harvest solution 2, S-eluate storage 24 h) 98%. For the same compound, the “Factor VIII activity (%) In preparation with 3 mM EDTA” value reads like this: (harvest solution 3, S-eluate storage 0 h) 100%; (harvest solution 3, S-eluate storage 6 h) 109%; (harvest solution 3, S-eluate storage 24 h) 109%; (harvest solution 4, S-eluate storage 0 h) 100%; (harvest solution 4, S-eluate storage 6 h) 103%; (harvest solution 4, S-eluate storage 24 h) 102%.
